Results published in a melting point compilation (Tetko et al.; mined from patent text by program, amines drawn as free bases though some values may be those of a salt).

melting point | SMILES
137 °C | Cc1cc(-n2nc(C(F)(F)F)cc2-c2ccc(-c3ccco3)cc2)ccc1S(N)(=O)=O
115 to 117 °C | CCOC(=O)C(C)(C)c1cn2nc(NCCCN3CCC(NC(c4ccccc4)c4ccccc4)CC3)ccc2n1
131 to 132 °C | COc1cc(CCCC2SC(=O)NC2=O)ccc1OCc1coc(-c2ccccc2)n1 (centres undefined)
265 to 266 °C | O=C(O)COc1ccc(CN2C(=O)C3(COc4cc5c(cc43)CCO5)c3ccccc32)cc1 (centres undefined)
118 to 120 °C | Fc1ccc2nc(-c3ccccc3)cc(OCC3CO3)c2c1 (racemic)
151 to 152 °C | COc1cc(OC)n2sc(=NS(=O)(=O)Cc3ccccc3OC(F)F)nc2n1
160 to 161 °C | Cc1cc(CNC(=O)c2ccnc(-n3cnn(Cc4ccc(F)c(F)c4)c3=O)c2)no1
> 230 °C | CSc1nn2c(N3CCN(c4ccccc4)CC3)cc(C)nc2c1S(=O)(=O)c1ccccc1
117 to 119 °C | O=C(CN1C(=O)C2(COc3cc4c(cc32)OCCO4)c2ccccc21)Nc1ccccc1F (centres undefined)
118 to 120 °C | O=C1CCC(N2Cc3c(OCC4CCCOC4)cccc3C2=O)C(=O)N1 (centres undefined)
> 260 °C | Cn1cc2c(n1)Nc1ccc(Cl)cc1NC2=O
87 to 88 °C | C[C@H](NC(=O)OCC1c2ccccc2-c2ccccc21)C(=O)N1[C@H](C)C(=O)OC[C@@H]1c1ccccc1
82 to 83 °C | O=C(CCCCCCOc1ccc(OCc2ccccc2)cc1)C(F)(F)F
154 to 155 °C | CCCCn1c(C)c(C)cc(NC(=O)Nc2ccccc2Br)c1=O
97 to 98 °C | O=S(=O)(Nc1ccc(Cl)cc1Oc1ccc(Cl)cc1Cl)C(F)(F)F
150 to 152 °C | CNC(=O)N1CCC(c2nn(-c3ccc(C(F)(F)F)cc3)c3ccccc23)CC1
152 to 154 °C | N#CC(c1ccc(C(O)C(Cc2cccc(OC(F)(F)C(F)F)c2)NC(=O)c2cccc3c2C=CCCC3)cc1)N1CCCCC1 (racemic)
123 °C | COc1ccc(C(=O)C=Cc2ccccc2O)c(OC)c1OC
175 to 177 °C | Cc1c(C=CCN2CCOCC2)[nH]c(=O)c2c1ccc1nc(Nc3c(Cl)cccc3Cl)n(C)c12

melting point | SMILES
182 to 185 °C | CN1CCN(Cc2ccc(NC(=O)C#Cc3ccc(-c4ccc(Cl)cc4)cc3)cc2)CC1
112 to 114 °C | CCOC(=O)CO/N=C(\C(=O)Sc1nc2ccccc2s1)c1cc[nH]n1
119 to 120 °C | CCCCCC(=O)Nc1ccnc(-c2ccncc2)n1
162 to 164 °C | O=S1(=O)N=Cc2cccc(Cl)c21
128 °C | CC(C)(C)OC(=O)[C@@H]1CS[C@H](c2ccccc2-c2ccccc2)N1C(=O)CNC(=O)Nc1cccc(CC(=O)O)c1
133 to 134 °C | CCc1cccc2c(S(=O)(=O)c3ccc(C)cc3)cnnc12
75 to 76 °C | CC(C)CSc1nc2c(cc1C#N)C(=O)CC(C)(C)C2
220 to 221 °C | CSc1ncc(Cc2cnc3ccccc3c2)c(=O)[nH]1
180 °C | C#CCOc1cc(-n2nc(C)ccc2=O)c(F)cc1C#N
169 °C | CN(C)CCCNC(=O)c1ccccc1-c1cc2cc(Cl)c(Cl)cc2[nH]1
101 to 102 °C | CCCc1c(OCCCOc2ccc3c(c2CCC)OC(C)(CCC(=O)N(C)CC(=O)OCC)CC3=O)ccc(C(C)=O)c1O (centres undefined)
153 to 155 °C | CCCN(CCC)CC1CCCCN1CCNC(=O)N1c2ccccc2NC(=O)c2c1ccn2C (centres undefined)
289 °C | COc1ccc(-c2[nH]nc3c2C(=O)c2c(NC(=O)C4CC4)cccc2-3)cc1
254 to 255 °C | Cn1nc2c(N)nc3ccccc3c2c1CC(C)(C)C
113 to 114 °C | CCCCCC(CC(=O)Nc1cc(CCC(N)=O)ccc1C(C)(C)C)c1ccc(OC)cc1OC (centres undefined)
80 to 82 °C | CCOC(=O)Cc1cc(Cl)cc(C(=O)c2ccccc2)c1N
202 °C | NS(=O)(=O)c1ccc(/C(=C2\CCOC2=O)c2ccc(F)cc2)cc1
102 to 104 °C | Cc1cc(C)c2c(n1)-c1ccccc1C2=O
162 to 164 °C | CC(=O)OCc1ccc2oc(=O)c(C(=O)Oc3cc([N+](=O)[O-])ccc3[N+](=O)[O-])cc2c1

melting point | SMILES
330 to 332 °C | O=c1cnc2c([N+](=O)[O-])c(Cl)c(Cl)cc2[nH]1
> 250 °C | CCOC(=O)Cn1c(=O)c(=O)[nH]c2ccc3ccc([N+](=O)[O-])cc3c21
168 to 169 °C | COc1ccc(C2CCN(C(N)=O)CC2)cc1CC1CCCC1
135 to 137 °C | COC(=O)Cc1ccc(-c2ccc(OCCN3CCOCC3)cc2)cn1
206 to 207 °C | COc1cc(C(=O)C=Cc2ccncc2)ccc1OCC(=O)Nc1nc2ccccc2s1
108 °C | Cc1c(Cl)ccc2[nH]c(CO)cc12
247 to 248 °C | CCc1noc(-c2ncc3[nH]c4ccc(C5CC=CCC5)cc4c3c2C)n1 (centres undefined)
172 °C | Cc1cc(-n2ccnc2)c2cccc(OCc3c(Cl)ccc(S(=O)(=O)N4CCC[C@H]4C(=O)O)c3Cl)c2n1
208 °C | CCOC(=O)c1scc2c1CN(C)C(=O)c1cncn1-2
102 to 104 °C | O=C(c1ccc(OCCCl)cc1)N1CCOCC1
135 to 136 °C | CC=CC=CCOC(=O)C1=C(C)NC(C)=C(C(=O)OC)C1c1cccc([N+](=O)[O-])c1 (centres undefined)
153 to 154 °C | CS(=O)(=O)c1ccc(-c2sc(CCc3ccccc3)nc2-c2ccc(F)cc2)cc1
58 to 65 °C | O=C1NC(=O)C2(CC(Br)c3ccccc32)N1 (centres undefined)
133 to 134 °C | COc1ccc2c(c1)C1(CC#N)CCC(=O)C=C1CC2 (centres undefined)
200 to 202 °C | CCOC(=O)C(=O)Nc1cccc(O)c1C(N)=O
208 °C | CN1CCC(CC(O)c2cc(-c3ccccc3)nc3ccccc23)CC1 (centres undefined)
129 to 130 °C | COc1cc(C=O)ccc1OCc1csc(N2CCCCC2)n1
100 to 101 °C | CCOC(=O)CC(C)c1ccc(C2COc3c(C)c(C)c(NC(=O)CC(C)(C)C)c(C)c32)cc1 (centres undefined)
128 to 133 °C | COC(=O)N(CCCc1ccccc1)[C@H]1CC[C@H](c2ccc(O)cc2)CC1

Further lines, the compound ahead of its results:

SMILES | melting point
COCCN(CCOC)Cc1nc(-c2ncn3c2[C@@H]2CCN2C(=O)c2c(Cl)cccc2-3)no1 | 188 to 190 °C
CS(=O)(=O)c1ccc(-c2nnc(Oc3ccc(F)cc3F)cc2-c2ccc(Cl)cc2)cc1 | 115 to 117 °C
CCCCCCCCCCc1ccc(COc2ccc(-c3ncc(CCCCCCCCC)cn3)cc2)cc1 | 105 °C
Cc1cc(C(C)(C)C)c(Cl)c(C)c1SSc1c(C)cc(C(C)(C)C)c(Cl)c1C | 128 to 129 °C
Cc1ccc(Sc2cncc3sc(C(N)=O)cc23)c(C)c1 | 193 to 195 °C
Clc1ccc(-c2nc(Cl)nc(Cl)c2-c2ccccc2)cc1 | 129 to 131 °C
Cc1nc(-c2ccc(C(F)(F)F)cc2)sc1C(=O)NCc1ccc(OC(C)(C)C(=O)O)cc1 | 130 to 131 °C
CC1c2cc(C(C)(C)C)cc(C(C)(C)C)c2OP(OCCNC(C)(C)C)Oc2c1cc(C(C)(C)C)cc2C(C)(C)C (centres undefined) | 174 to 175 °C
CC(=O)SCC(C(=O)NCCc1nnn[nH]1)C(F)(F)F (centres undefined) | 157 to 160 °C
FC(F)(F)c1nc2nc(Cl)c(Cl)cc2[nH]1 | 222 to 224 °C
N=C(NNC(=O)c1ccccc1O)C(Cl)(Cl)Cl | 168 to 169 °C
Cc1oc(-c2ccccc2)nc1CCOc1ccc(CC(C(=O)O)c2nc(-c3ccccc3)oc2C)cc1 (centres undefined) | 120 °C
CS(=O)(=O)OCCCCCCNc1ccc2nncn2n1 | 103 to 105 °C
CC(C)(C)C(=O)C(Cl)NC(=O)c1ccc(Cl)cc1 (centres undefined) | 132 to 135 °C
COC(=O)c1ccc2c(c1)C(SCCI)c1ccccc1CO2 (centres undefined) | 111 to 113 °C
CC(C)(Cl)c1ccc(-c2ccc(C(C)(C)Cl)cc2)cc1 | 96 to 98 °C
CCCCOc1c(NC(C)C(C)(C)C)c(=O)c1=O (centres undefined) | 90 to 99 °C
C#Cc1ccc2c(c1)C(c1ccccn1)=NCc1c(-c3nc(C(C)C)no3)ncn1-2 | > 200 °C
NNC(=O)C(Cl)(Cl)c1cccc(Cl)n1 | 198 to 200 °C
Fc1ccc(C(c2ccc(Cl)cc2Cl)C(F)n2cncn2)cc1 (centres undefined) | 96 to 104 °C
CCc1nc2c(N)nc3cc(OCc4ccc(C(F)(F)F)o4)ccc3c2s1 | 152 to 154 °C

SMILES | melting point
O=C(NC(=O)c1ccc(F)cc1Cl)Nc1ccc(C(F)(F)F)c(F)c1 | 181 °C
COc1ccc2cc(-c3nccn3C)ccc2n1 | 116 to 118 °C
CCc1cc(Br)cc(NC(=O)C=NO)c1 | 176 to 178 °C
CC(C)(C)c1nnc(NN)s1 | 111 to 112 °C
Cc1cncn1-c1ccc(O)cc1 | 256 °C
CCOC(=O)C(C)Oc1ncn(-c2ccc(OC(F)(F)F)cc2)n1 (centres undefined) | 52 to 53 °C
CCCn1cc2c(n1)c(N)nc1ccccc12 | 225 to 227 °C
Cc1cccc2c1N(CC(=O)c1ccccc1[N+](=O)[O-])C(=O)C(NC(=O)Nc1cccc(-c3nnn[nH]3)c1)N=C2c1ccccc1F (centres undefined) | 192 to 197 °C
COc1ccc(/C=C/C(=O)N(C)CC(O)CO)cc1 (centres undefined) | 81 to 83 °C
O=C(NCCCc1ccc(CC(CCCc2ccccc2)(C(=O)OCc2ccccc2)C(=O)OCc2ccccc2)cc1)c1ccc(-c2ccccn2)cc1 | 118 to 120 °C
COc1ccc(NC(=O)OC(C)(C)C)c(C)c1 | 80 to 82 °C
COc1cc(C=O)cc(C#N)c1O | 180 °C
CN1Cc2c(/C=C\Cl)ncn2-c2cccc(Cl)c2C1=O | 205 to 207 °C
Cc1cc(C(=O)c2cc(C(F)(F)F)cc(C(F)(F)F)c2)ccc1N(C)C | 145 to 147 °C
Cc1cc(OCC(O)CCCl)ccc1Cl (centres undefined) | 87 to 89 °C
O=C1c2c(O)ccc(O)c2-c2nn(CC(O)CO)c3ccc(NCCNCCO)c1c23 (centres undefined) | 184 to 188 °C
CCCCCCCCCCCCCCCC/C=C\OC[C@H](O)CO | 55 to 56 °C
CC1CCC(C)C1C(=O)O (centres undefined) | 45 °C
Cc1cc(C)cc(/C=C/c2ccc(O)cc2)c1 | 142 °C
C=CCN(CC=C)Cc1noc(-c2ncn3c2[C@@H]2CCCN2C(=O)c2c(Cl)cccc2-3)n1 | 175 to 177 °C
NC(=O)c1cc2cc(C(O)(C(F)(F)F)C(F)(F)F)ccc2[nH]1 | 262 to 263 °C
